Assays:
[1] = Oxidation-reduction potentials and redox mediation of dyes and reagents; type: physicochemical
Description: Diphenylmethane and triphenylmethane dyes of the present invention have midpoint oxidation-reduction ("redox") potentials ("Em7 ") apparently more negative than the Em7 value for NADPH or cytochrome P450 isozymes. […] Specific examples include pararosaniline (E1/2 =-0.75 V) and malachite green (E1/2 =-0.55 V) (W. Kemula and A. Axt (1969) op cit; Also H. O. Willard, L. L. Merritt, and J. A. Dean (1965) Instrumental Methods of Analysis, 4th Ed., pp. 682-685 and 760-763, for a comparison of E1/2 versus Em7. These potentials are too negative for direct measurement in water, as Em7 =-0.42 V for water breakdown to hydrogen.), both of which respond with color development upon microsomal metabolic activation.
Methylene blue is a rapidly mediating redox indicator, and as such is conventionally used for standardization of electrodes and electrochemical systems used in redox potentiometry. Systems containing ascorbate were therefore tightly clamped at a redox potential of +10 to +20 mV, regardless of any interfering influences such as oxygen. […] Spectrum "mb" is that of pure methylene blue in its oxidized state. Curve "oxid" is the spectrum of a mixed solution of methylene blue as in curve "mb" plus the fully oxidized pararosaniline. […]

[2] = literature (Kemula and Axt); cited from earlier work
rat liver microsomes [3] = type: biochemical; parameters: unit not given here
rat liver microsomes [4] = type: biochemical; parameters: key: Positive: the development of coloration denoted a positive response; Negative: the absence of such coloration denoted a negative response
rat liver microsomes [5] = test: Colorimetric reactions of constituents in bi-layer film (Example 1); type: biochemical
Method: In order to establish the color development behavior of various constituents employed in the invention alone and in several combinations, including two selected test chemicals, seven separate bi-layer film spots were prepared using an otherwise similar gelatin binder medium. The bottom layer of these spots contained reduced pararosaniline (PRA) in all instances except sample 7 wherein the oxidized PRA was substituted to illustrate the coloration of that constituent. An ascorbate salt was selected as typical of a benign test chemical, while benzo(a)pyrene was selected as a representative known carcinogen. The color behavior of the various samples was observed and identified in the following Table 3 together with the compositions of the samples tested.

rat liver microsomes [6] = test: Detection of benzo(a)pyrene on bilayer spot (Example 3); type: biochemical; details: 0.05 mL of 0.5 mg/mL solution on spot
Method: Two spots were prepared by manual streaking on a glass plate. The bottom layer of each spot consisted of 0.15 mL of a 4 mg/mL porcine 300 Bloom gelatin solution containing 1.2 mg/mL pararosaniline (PRA) reduced with solid sodium metabisulfite, spread over an area of 1100-1500 mm^2. After drying in air for two hours, the second layer, containing the following materials, was deposited. 0.05 mL of fresh rat liver microsomes containing approximately 62 mg/mL protein was added to 0.30 mL of a sodium phosphate buffer solution (pH=7.4) containing 4 mg/mL porcine 300 Bloom gelatin, and admixed with 0.02 mL of a solution containing 3 mM MgCl2, 50 mM tris(hydroxymethyl-)aminomethane buffer (pH=7.4) and 15 mM KCl. To this solution was added 10.5 mg solid reduced nicotinamide adenine dinucleotide phosphate (NADPH). 0.25 mL of this material was deposited over an area of 1300-1700 mm^2, completely covering the bottom layer, and was air dried for two hours. […] Within less than five minutes, violet color began to appear, and was well developed within twenty minutes.

microsomes = test: Activity of microsome-containing layers after four day time lapse (Example 4); type: biochemical
Method: At least five spots were prepared on a glass plate according to the procedure in Example 2 above, and dried in air. The spots were translucent but generally colorless during the first day. […] On the third day, two of the remaining spots were "recharged" by a new layer containing fresh NADPH in gelatin. After drying, both spots were essentially colorless. […] Thus, the oxidative activity of microsomes dispersed in gelatin layers persists strongly for at least three days.

[7] = in vivo; cited from earlier work
[8] = in vivo; cited from earlier work; remark: listed apart in the source

| Compound | standard oxidation-reduction potential (Em7) ([1]; aqueous media, from FIG. 1 data) | Time to equilibrate in a redox voltage-clamped system ([1]; ascorbate / methylene blue clamped system) | E1/2 [2] | Detector Response, threshold dose (rat liver microsomes [3]) | Invention Response (rat liver microsomes [4]) | COLOR REACTION (rat liver microsomes [5]; no microsomes, no NADPH, bottom PRA-reduced (samples 5, 6)) | COLOR REACTION (rat liver microsomes [5]; top layer with rat liver microsomes and NADPH, bottom PRA-reduced (sample 4)) | Time until violet color began to appear (rat liver microsomes [6]) | Time until violet color well developed (rat liver microsomes [6]) | Color developed on spot (microsomes; fourth day, NADPH-recharged spot) | Color developed on spot (microsomes; fourth day, not recharged) | Color developed on spot (microsomes; second day, not recharged) | Color developed on spot (microsomes; third day, recharged with fresh NADPH) | Carcinogenic Status [7] | Tumorigen Activity [7] | Teratogen Activity [8] |
| --- | --- | --- | --- | --- | --- | --- | --- | --- | --- | --- | --- | --- | --- | --- | --- | --- |
| N=C1C=CC(=C(c2ccc(N)cc2)c2ccc(N)cc2)C=C1 [pararosaniline] | < -0.1 V | two | -0.75 V | – | – | – | – | – | – | – | – | – | – | – | – | – |
| c1ccc2c(c1)cc1ccc3cccc4ccc2c1c34 [Benzo(a)pyrene] | – | – | – | 0.01 | Positive | No | Yes | less than five | twenty | strong violet color | strong violet color | strong violet color | deep purple color | Positive | + | + |
